From US11844794B2, “Pharmaceutical compositions” (ADEPTIO PHARMACEUTICALS LIMITED, priority 2017, dated 2023)
Entries after “also recorded” stand apart in the source; their conditions may differ. Where two headings read alike, the source gives them in different places.

What was measured:
[1] = system: amphetamine-induced rats; test: amphetamine-induced locomotor activity, open field test; format: in vivo, rat; details: male CD rats
Protocol: (§1) All animal experiments were carried out according to the National Institute of Health (NIH) guidelines for the care and use of laboratory animals, and approved by the National Animal Experiment Board, Finland. Male CD (Charles River Laboratories, Germany) at weight range of 200-250 g (165-200 g upon arrival) were used for the experiments. Animals were housed at a standard temperature (22±1° C.) and in a light-controlled environment (lights on from 7 am to 8 pm) with ad libitum access to food and water.
(§2) Locomotor activity of the rats was tested in open field arena. The open field test was performed during the rat light cycle and under a normal lighting evenly distributed to the test chambers. The paths of the rats were recorded by activity monitor (Med. Associates Inc.).
(§3) Dosing the vehicle, vehicle-amphetamine, (+)-α-DHTBZ or risperidone was done prior to LMA test. The rats were placed in the centre of the arena, and the path was recorded for 60 minutes.
Animals were grouped as follows: • Group 1: 10 rats treated with Vehicle (t=0 min) and Vehicle (t=30 min) • Group 2: 10 rats treated with Vehicle (t=0 min) and Amphetamine (t=30 min) • Group 3: 10 rats treated with (+)-α-DHTBZ 0.5 mg/kg (t=0 min) and Amphetamine (t=30 min) • Group 4: 10 rats treated with (+)-α-DHTBZ 1 mg/kg (t=0 min) and Amphetamine (t=30 min) • Group 5: 10 rats treated with (+)-α-DHTBZ 1.5 mg/kg (t=0 min) and Amphetamine (t=30 min) • Group 6: 10 rats treated with (+)-α-DHTBZ 2 mg/kg (t=0 min) and Amphetamine (t=30 min) • Group 7: 10 rats treated with risperidone 1 mg/kg (t=0 min) and Amphetamine (t=30 min)
(§4) Rats dosed with either vehicle, (+)-α-DHTBZ 0.5 mg/kg, (+)-α-DHTBZ 1 mg/kg, (+)-α-DHTBZ 1.5 mg/kg, (+)-α-DHTBZ 2 mg/kg or Risperidone 1 mg/kg were subjected to LMA testing first for 30 min and then for 60 minutes after vehicle or amphetamine challenge. Resulting locomotor activity was evaluated in 3 min bins and as a total over the testing period.
as §4, with “stereotypic” for “locomotor”, “period. […]” for “period.”

[2] = system: non-amphetamine induced rats; test: locomotor activity in rats without amphetamine induction, open field test; format: in vivo, rat; details: Study 3, non-induced rats, 1 mg/kg
Protocol: as §1, §2, §3
Animals were grouped as follows: • Group 1: 10 rats treated with Vehicle • Group 2: 10 rats treated with (+)-α-DHTBZ 2.5 mg/kg • Group 3: 10 rats treated with (+)-α-DHTBZ 5 mg/kg • Group 4: 10 rats treated with risperidone 1 mg/kg

[3] = system: patients suffering from tardive dyskinesia; details: cited from earlier work
[4] = system: Tardive Dyskinesia sufferers; details: Valbenazine 80 mg/day; cited from earlier work
[5] = equilibrium aqueous solubility by HPLC; format: physicochemical
Protocol: The aqueous solubilities of salts were measured by an equilibrium method in which an amount of the salt was weighed into a 2 ml vial equipped with a magnetic stirrer bar and water added. In cases where complete dissolution was observed, more material was added until the sample was exhausted. The slurry was then stirred for seven days before isolating the solids by centrifuge-filtration. The solids were analysed by XRPD and the filtrates were analysed by HPLC to determine the amount of (+)-alpha-dihydrotetrabenazine salt in solution. The solubilities were calculated against a calibration curve established for a (+)-alpha-dihydrotetrabenazine sample of known concentration.

[6] = solid form stability in slurry / polymorphism by XRPD; format: physicochemical; details: for crystalline form after stirring in slurry (XRPD): one week
[7] = thermal gravimetric analysis (TGA) / thermal stability; details: for TGA weight loss: 30-300° C. at 10° C./minute
Protocol: Differential scanning calorimetry (DSC) was carried out on the sample “as is” using a Mettler DSC1 instrument. The sample was weighed I an aluminium pan, covered with a pierced lid, and then crimped and analysed from 30-300° C. at 10° C./minute.
Thermal gravimetric analysis was performed on the sample “as is” using a Mettler 851^e TGA instrument. The sample was weighed in an alumina crucible and analysed from 30-300° C. at 10° C./minute.

[8] = molecular target: Chromaffin Granule Monoamine Transporter (Bos taurus, UniProt Q27963); details: racemic α versus racemic β, in vitro; cited from earlier work
Chromaffin Granule Monoamine Transporter, sequence (Q27963 whole entry): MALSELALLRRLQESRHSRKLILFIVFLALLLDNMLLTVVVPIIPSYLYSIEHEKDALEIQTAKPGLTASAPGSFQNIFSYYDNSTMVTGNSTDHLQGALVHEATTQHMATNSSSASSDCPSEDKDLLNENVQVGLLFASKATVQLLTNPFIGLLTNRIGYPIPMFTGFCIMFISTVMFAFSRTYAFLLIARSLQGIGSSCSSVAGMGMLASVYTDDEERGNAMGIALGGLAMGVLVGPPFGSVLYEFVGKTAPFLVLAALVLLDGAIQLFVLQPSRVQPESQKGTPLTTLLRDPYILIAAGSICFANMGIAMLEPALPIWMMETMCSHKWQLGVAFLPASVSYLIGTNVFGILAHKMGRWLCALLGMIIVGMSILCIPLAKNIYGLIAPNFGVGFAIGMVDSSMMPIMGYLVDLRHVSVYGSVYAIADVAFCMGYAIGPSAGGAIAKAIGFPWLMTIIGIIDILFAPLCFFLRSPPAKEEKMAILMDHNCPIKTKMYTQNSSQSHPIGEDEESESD

[9] = moisture-sorption analysis; format: physicochemical; details: for moisture uptake: 25° C.
Protocol: Moisture-sorption analysis was carried out using a Hiden IGA Sorp moisture-sorption analyser. […] The sample was then subjected to an isothermal (at 25° C.) adsorption scan from 40 to 90% relative humidity in steps of 10%. The sample was allowed to equilibrate to an asymptotic weight at each point for a maximum of four hours. […] An adsorption scan was then performed from 0 to 40% relative humidity inn steps of 10%. The sample was dried for two hours at 60° C. and 0% relative humidity, and the resulting solid was analysed by XRPD.

Which “total distance travelled compared to vehicle-amphetamine group” value ([1]; Study 1, 1 mg/kg) does the source give for Cc1nc2n(c(=O)c1CCN1CCC(c3noc4cc(F)ccc34)CC1)CCCC2 [risperidone, reference compound] here?
The value was “lower locomotor activity”.

What about the “total stereotypic behaviour compared to vehicle-amphetamine group” value ([1]; Study 1, 1 mg/kg) of the same compound?
Its value is “significantly different; also recorded: reduced stereotypic behaviour”.

And the “total distance travelled compared to vehicle-amphetamine group” value ([1]; Study 2, 1 mg/kg)?
The value was “lower locomotor activity”.

And the “total stereotypic behaviour compared to vehicle-amphetamine group” value ([1]; Study 2, 1 mg/kg)?
Its value is “significantly different; also recorded: reduced stereotypic behaviour”.

And the “total movement versus vehicle” value [2]?
The value was “reduced total movement”.

And the “total stereotypic behaviour versus vehicle” value [2]?
Its value is “reduced total stereotypic behaviour”.

For COc1cc2c(cc1OC)[C@H]1C[C@@H](OC(=O)[C@@H](N)C(C)C)[C@H](CC(C)C)CN1CC2 [Valbenazine], which “improvement scored with AIMS” value ([3]; Valbenazine 50 mg/day) is on record?
The value was “did not show any significant signs of improvement”.

What about the “reduction of symptoms (AIMS)” value ([3]; Valbenazine 100 mg/day) of the same compound?
Its value is “some reduction of symptoms”.

And the “Abnormal Involuntary Movement Score” value [4]?
Its value is “significant improvement”.

For COc1cc2c(cc1OC)[C@H]1C[C@@H](O)[C@H](CC(C)C)CN1CC2.Cl [HCl salt form A, (+)-α-dihydrotetrabenazine hydrochloride], which “equilibrium solubility in water” value [5] is on record?
The value was 203 mg/mL.

What about the solubility thermodynamic [5] of the same compound?
The solubility thermodynamic was 203 mg/mL.

What about the polymorphism [6] of the same compound?
The polymorphism was “undesirable polymorphism”.

And the “crystalline form after stirring in slurry (XRPD)” value ([6]; aqueous slurry)?
The value was “conversion to a different (by XRPD) crystalline form”.

What about the TGA weight loss [7] of the same compound?
Its TGA weight loss is “No weight loss”.

For α-dihydrotetrabenazine, which “higher affinity than the β-isomer” value [8] is on record?
Its value is 3- to 4 fold.

For COc1cc2c(cc1OC)[C@H]1C[C@@H](O)[C@H](CC(C)C)CN1CC2.O=S(=O)(O)c1ccccc1 [benzenesulphonate salt], which “equilibrium solubility in water” value ([5]; water, measured by HPLC) is on record?
Its value is 2.20 mg/mL.

What about the moisture uptake ([9]; 60% relative humidity) of the same compound?
Its moisture uptake is 0.2 wt %.

And the moisture uptake ([9]; 90% relative humidity)?
Its moisture uptake is 1.7 wt %.

And the hygroscopicity ([9]; gravimetric moisture-sorption)?
The hygroscopicity was “slightly hygroscopic”.

What about the polymorphism [6] of the same compound?
Its polymorphism is “no apparent polymorphism”.

And the “crystalline form after stirring in slurry (XRPD)” value ([6]; water, ethanol and ethyl acetate slurry)?
Its value is “remained unchanged”.

What about the TGA weight loss [7] of the same compound?
The TGA weight loss was “No weight loss”.

What about the thermal stability ([7]; from DSC and TGA) of the same compound?
Its thermal stability is “good thermal stability”.
